US12077503B2, “Substituted cyclic amides and their use as herbicides” (FMC CORPORATION, priority 2015, dated 2024)

Legend:
Assay type in all cases: in vivo
[1] = test system: barnyardgrass (Echinochloa crus-galli); assay: Test A preemergence; settings: Echinochloa crus-galli, pre-emergence, 240 h, 0 to 100 scale (0 no effect, 100 complete control), read-out: Plant response rating, Barnyardgrass; for pest or weed control at 500 g/ha: 500 g ai/ha, preemergence; for pest or weed control at 125 g/ha: Preemergence, 125 g ai/ha
Outline: (§1)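 Visual injury, scored on a 0–100 scale relative to untreated controls, was recorded about 10 d after application. Treatments were a preemergence soil spray over planted seeds or a postemergence spray on plants at the one- to two-leaf stage, 2 to 10 cm tall, all in loam soil–sand blend in the greenhouse.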

Kochia (Kochia scoparia) = assay: Test A preemergence; settings: Bassia scoparia, pre-emergence, 240 h, 0 to 100 scale (0 no effect, 100 complete control), read-out: Plant response rating, Kochia; for pest or weed control at 500 g/ha: 500 g ai/ha, preemergence; for pest or weed control at 125 g/ha: Preemergence, 125 g ai/ha
Outline: as §1

[2] = test system: giant foxtail (Setaria faberii); assay: Test A preemergence; settings: Setaria faberi, pre-emergence, 240 h, 0 to 100 scale (0 no effect, 100 complete control), read-out: Plant response rating, Foxtail, Giant; for pest or weed control at 500 g/ha: 500 g ai/ha, preemergence; for pest or weed control at 125 g/ha: Preemergence, 125 g ai/ha
Outline: as §1

[3] = test system: ragweed (common ragweed, Ambrosia elatior); assay: Test A preemergence; settings: Ambrosia artemisiifolia, pre-emergence, 240 h, 0 to 100 scale (0 no effect, 100 complete control), read-out: Plant response rating, Ragweed; for pest or weed control at 500 g/ha: 500 g ai/ha, preemergence; for pest or weed control at 125 g/ha: Preemergence, 125 g ai/ha
Outline: as §1

[4] = test system: ryegrass, Italian (Italian ryegrass, Lolium multiflorum); assay: Test A preemergence; settings: Lolium multiflorum, pre-emergence, 240 h, 0 to 100 scale (0 no effect, 100 complete control), read-out: Plant response rating, Ryegrass, Italian; for pest or weed control at 500 g/ha: 500 g ai/ha, preemergence; for pest or weed control at 125 g/ha: Preemergence, 125 g ai/ha
Outline: as §1

[5] = test system: pigweed (Amaranthus retroflexus); assay: Test A preemergence; settings: Amaranthus retroflexus, pre-emergence, 240 h, 0 to 100 scale (0 no effect, 100 complete control), read-out: Plant response rating, Pigweed; for pest or weed control at 500 g/ha: 500 g ai/ha, preemergence; for pest or weed control at 125 g/ha: Preemergence, 125 g ai/ha
[6] = test system: barnyardgrass (Echinochloa crus-galli); assay: Test B flooded paddy test; settings: Echinochloa crus-galli, 360 h, Flood, 250 g ai/ha; visually evaluated after 13 to 15 d; read-out: Plant response rating, Barnyardgrass (0 to 100 scale where 0 is no effect and 100 is complete control)
Outline: (§2)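 Response scored visually against untreated controls, 0 = no effect and 100 = complete control, 13–15 d after treatment in the greenhouse. Compounds added to paddy water held 3 cm above soil surface. Treatment given at 2-leaf stage.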

rice (Oryra sativa) = assay: Test B flooded paddy test; settings: Oryza sativa, 360 h, Flood, 250 g ai/ha; visually evaluated after 13 to 15 d; read-out: Plant response rating, Rice (0 to 100 scale where 0 is no effect and 100 is complete control)
Outline: as §2

[7] = test system: ducksalad (Heteranthera limosa); assay: Test B flooded paddy test; settings: Heteranthera limosa, 360 h, Flood, 250 g ai/ha; visually evaluated after 13 to 15 d; read-out: Plant response rating, Ducksalad (0 to 100 scale where 0 is no effect and 100 is complete control)
Outline: as §2

[8] = test system: sedge, umbrella (small-flower umbrella sedge, Cyperus difformis); assay: Test B flooded paddy test; settings: Cyperus difformis, 360 h, Flood, 250 g ai/ha; visually evaluated after 13 to 15 d; read-out: Plant response rating, Sedge, Umbrella (0 to 100 scale where 0 is no effect and 100 is complete control)
Outline: as §2

[9] = test system: wheat (Triticum aestivum); assay: Test A postemergence; settings: Triticum aestivum, post-emergence, 240 h, Postemergence; for plant injury at 125 g/ha: 125 g ai/ha, visual rating about 10 d after treatment, read-out: Wheat plant response rating (0 to 100 scale); for plant injury at 500 g/ha: 500 g ai/ha, visual injury, 0 to 100 scale (0 no effect, 100 complete control), approx. 10 d, read-out: Plant response rating, Wheat
Outline: as §1

[10] = test system: giant foxtail (Setaria faberii); assay: Test A postemergence; settings: Setaria faberi, post-emergence, 240 h, Postemergence; for pest or weed control at 125 g/ha: 125 g ai/ha, visual rating about 10 d after treatment, read-out: Foxtail, Giant plant response rating (0 to 100 scale); for pest or weed control at 500 g/ha: 500 g ai/ha, visual injury, 0 to 100 scale (0 no effect, 100 complete control), approx. 10 d, read-out: Plant response rating, Foxtail, Giant
Outline: as §1

[11] = test system: ryegrass, Italian (Italian ryegrass, Lolium multiflorum); assay: Test A postemergence; settings: Lolium multiflorum, post-emergence, 240 h, Postemergence; for pest or weed control at 125 g/ha: 125 g ai/ha, visual rating about 10 d after treatment, read-out: Ryegrass, Italian plant response rating (0 to 100 scale); for pest or weed control at 500 g/ha: 500 g ai/ha, visual injury, 0 to 100 scale (0 no effect, 100 complete control), approx. 10 d, read-out: Plant response rating, Ryegrass, Italian
Outline: as §1

[12] = test system: pigweed (Amaranthus retroflexus); assay: Test A postemergence; settings: Amaranthus retroflexus, post-emergence, 240 h, Postemergence; for pest or weed control at 125 g/ha: 125 g ai/ha, visual rating about 10 d after treatment, read-out: Pigweed plant response rating (0 to 100 scale); for pest or weed control at 500 g/ha: 500 g ai/ha, visual injury, 0 to 100 scale (0 no effect, 100 complete control), approx. 10 d, read-out: Plant response rating, Pigweed
Outline: as §1

[13] = test system: blackgrass (Alopecurus myosuroides); assay: Test A postemergence; settings: Alopecurus myosuroides, post-emergence, 240 h, Postemergence; for pest or weed control at 125 g/ha: 125 g ai/ha, visual rating about 10 d after treatment, read-out: Blackgrass plant response rating (0 to 100 scale); for pest or weed control at 500 g/ha: 500 g ai/ha, visual injury, 0 to 100 scale (0 no effect, 100 complete control), approx. 10 d, read-out: Plant response rating, Blackgrass
Outline: as §1

O=C1NC[C@H](c2cncs2)[C@H]1C(=O)Nc1cccc(F)c1F [Compound 1336]
0%: pest or weed control at 500 g/ha [1] | pest or weed control at 125 g/ha [1] | pest or weed control at 500 g/ha (Kochia (Kochia scoparia)) | pest or weed control at 125 g/ha (Kochia (Kochia scoparia)) | pest or weed control at 500 g/ha [2] | pest or weed control at 125 g/ha [2] | pest or weed control at 500 g/ha [3] | pest or weed control at 125 g/ha [3] | pest or weed control at 500 g/ha [4] | pest or weed control at 125 g/ha [4] | pest or weed control at 500 g/ha [5] | pest or weed control at 125 g/ha [5] | pest or weed control at 250 g/ha [6] | pest or weed control at 250 g/ha (rice (Oryra sativa)) | pest or weed control at 250 g/ha [8] | plant injury at 125 g/ha [9] | plant injury at 500 g/ha [9] | pest or weed control at 125 g/ha [10] | pest or weed control at 500 g/ha [10] | pest or weed control at 125 g/ha [11] | pest or weed control at 500 g/ha [11] | pest or weed control at 125 g/ha [12] | pest or weed control at 500 g/ha [12] | pest or weed control at 125 g/ha [13] | pest or weed control at 500 g/ha [13]
40%: pest or weed control at 250 g/ha [7]

CN1C[C@H](c2ccc(C(F)(F)F)cc2)[C@@H](C(=O)Nc2ccccc2C#N)C1=O [Compound 1379]
50%: pest or weed control at 500 g/ha [4] | plant injury at 500 g/ha [9] | pest or weed control at 500 g/ha [12]
80%: pest or weed control at 125 g/ha [5] | pest or weed control at 125 g/ha [10] | pest or weed control at 500 g/ha [10]
0%: pest or weed control at 250 g/ha (rice (Oryra sativa)) | pest or weed control at 250 g/ha [8]
90%: pest or weed control at 500 g/ha (Kochia (Kochia scoparia)) | pest or weed control at 125 g/ha (Kochia (Kochia scoparia)) | pest or weed control at 500 g/ha [3] | pest or weed control at 500 g/ha [5]
70%: pest or weed control at 125 g/ha [3]
100%: pest or weed control at 500 g/ha [1] | pest or weed control at 125 g/ha [1] | pest or weed control at 500 g/ha [2] | pest or weed control at 125 g/ha [2] | pest or weed control at 250 g/ha [7]
20%: pest or weed control at 125 g/ha [4] | pest or weed control at 125 g/ha [12] | pest or weed control at 125 g/ha [13]
55%: pest or weed control at 250 g/ha [6]
30%: plant injury at 125 g/ha [9] | pest or weed control at 125 g/ha [11] | pest or weed control at 500 g/ha [11] | pest or weed control at 500 g/ha [13]
